Laboratory results from patent publication US11123391B2, “Nasal composition” (INQPHARM GROUP SDN BHD, priority 2015, dated 2021).

Test system: HMC1 cells
Assay: In vitro testing of mast cell line HMC-1: histamine release after IgE/anti-IgE, ELISA of supernatant
Assay type: cell-based
Conditions: calcium ionophore 100 μg/ml, 30 min; for histamine production / release: no IgE/anti-IgE
Procedure: Mast cell lines, i.e. HMC1 cells (provided by Dr Joseph H. Butterfield; Mayo Clinic, Rochester, Minn., USA), were cultured in Isocove's Modified Dulbecco's Medium (IMDM) containing 10% Fetal Bovine Serum (FBS), 2 mM L-glutamine, 50 μM 2-mercaptoethanol, 100 U/mL penicillin and 100 μg/mL streptomycin. Cells were maintained at 37° C. in 5% CO2 in a humidified atmosphere.
Percentage of living cells was determined by trypan blue staining. A 1:10 dilution with 50 μl cell suspension and 450 μl trypan blue was prepared and the number of living and dead cells was counted in a hemocytometer. 10^6 living cells were transferred into safe-lock Eppendorf tubes. Cell suspensions were centrifuged (200 g, 5 min) and supernatant was discarded.
The effect of perilla oil, sesame oil and a combination of perilla oil and sesame oil (in a combination ratio of 1:1) in the vehicle Kolliphor ELP (polyoxyl-35 hydrogenated castor oil) was determined. The positive control Cromolyn in phosphate buffer saline (PBS), the vehicles PBS and ELP, and calcium ionophore A23187 were also tested as controls.
After adding 100 μl IgE (100 ng/ml in PBS/ELP) to the cell pellets, cells were incubated for 12 hours over night, at 37° C. Cells were than incubated for 2 hours, at 37° C. with different concentrations of compounds. After centrifugation (200 g, 5 min), supernatant was discarded and cell pellet was again incubated for 1 hour, at 37° C. with 100 μl anti-IgE (1 μg/ml in PBS/ELP). For the final incubation time of 6 hours, at 37° C., 300 μl HMC1 media was added. Cells were again centrifuged (200 g, 5 min) and supernatant was collected and stored as 300 μl aliquots at −20° C. for ELISA measurements. Cell pellets were resuspended in 100 μl HMC1 media for determining cell viability.
The procedure was slightly different when the compound testing was calcium ionophore A23187. […]
The concentration of histamine in the collected supernatant was determined by ELISA, using a kit obtained from IBL International according to the manufacturer's guidelines. Each sample was measured twice. […]

SMILES: CNc1ccc2oc(C[C@H]3O[C@@]4(CC[C@H]3C)O[C@H]([C@H](C)C(=O)c3ccc[nH]3)[C@H](C)C[C@H]4C)nc2c1C(=O)O [calcium ionophore, calcium ionophore A23187]
- effect on the cells (cell viability): cells were completely destroyed
- histamine production / release: highest values of histamine production
- histamine production / release (listed as Calcium ionophore): released all histamine
